From patent US12121545B2, “Composition for a fecal-derived sterilized postbiotic in anti-aging and neurotherapeutic applications” (priority 2022, dated 2024)

Legend:
[1] = tested on: C. elegans adult animals; experiment: Lifespan of C. elegans adult animals (Kaplan-Meier survival); assay type: in vivo
Description: In a embodiments, organisms may include a vehicle control 204. In an embodiment, organisms may be treated with at least 0.05 mg/ml 208 of composition 100 and compared to a “vehicle control,” which as used in this disclosure, may include organisms not treated with composition 100. Lifespan data was represented as the percent of organism surviving over time, known as the Kaplan-Meier Estimate of Survival function.
Chart 212 illustrates the impact of resveratrol 216 at 100 μM; and rapamycin 220 at 50 μM; composition 100 at 0.05 mg/ml 208, 0.25 mg/ml 224, and 1.25 mg/ml 228; resveratrol at 100 μM; and rapamycin at 50 μM. In another non-limiting example, subjects, for instance, C. elegans, may be divided into five groups, with each group receiving a different concentration of composition (0.05 mg/mL 208, 0.25 mg/mL 224, or 1.25 mg/mL 228), vitamin C as a positive control (10 mM), or dimethyl sulfoxide (DMSO) as a negative control (0.05% DMSO).

[2] = tested on: Caenorhabditis elegans; experiment: Oxidative stress tolerance after paraquat exposure; assay type: in vivo; details: 10 mM, positive control; over 24 hours post-exposure; negative control (DMSO) declined 41%
Description: Still referring to FIG. 1, composition 100 may be configured to improve oxidative stress tolerance, preserve mitochondrial function, support energy production, enhance cellular defense mechanisms against oxidative stress, stimulate endogenous antioxidants and enzymes, reduce oxidative stress and/or mitochondrial oxidative stress, improve mitochondrial function, improve healthspan, improve longevity, improve autophagy, increase autophagy, or the like. Oxidative stress and healthspan disclosed herein are further described below. For the purposes of this disclosure, “oxidative stress” is a physiological state characterized by an imbalance between the production of reactive oxygen species and the body's antioxidant defenses. In a non-limiting example, reactive oxygen species (ROS) can be generated endogenously as byproducts of cellular metabolism; for instance in the mitochondria. In another non-limiting example, ROS can be generated exogenously in the result of environmental pollutants, radiation, cigarette smoking, alcohol, certain foods, and drugs. In a healthy human, the body's antioxidant defenses can neutralize these molecules before they cause significant cellular damage. However, when their production overwhelms the body's capacity to neutralize and eliminate them, they can cause widespread cellular damage. […]

[3] = 50 μM, * p<0.05 vs negative control
[4] = 100 μM, * p<0.05 vs negative control

SMILES: CO[C@H]1C[C@@H]2CC[C@@H](C)[C@@](O)(O2)C(=O)C(=O)N2CCCC[C@H]2C(=O)O[C@H]([C@H](C)C[C@@H]2CC[C@@H](O)[C@H](OC)C2)CC(=O)[C@H](C)/C=C(\C)[C@@H](O)[C@@H](OC)C(=O)[C@H](C)C[C@H](C)/C=C/C=C/C=C/1C [Rapamycin, rapamycin]
- age at 25% Mortality [1, 3]: 24.6* days
- age at 50% Mortality (median lifespan) [1, 3]: 29.5* days
- age at 75% Mortality [1, 3]: 32.8* days
- age at 90% Mortality [1, 3]: 35.7* days
- age at 95% Mortality [1, 3]: 36.1* days

SMILES: O=C1O[C@H]([C@@H](O)CO)C(O)=C1O [vitamin C]
- average decline after paraquat-induced oxidative stress [2]: 25%

SMILES: Oc1ccc(C=Cc2cc(O)cc(O)c2)cc1 [Resveratrol, resveratrol]
- age at 90% Mortality ([1]; 100 μM): 30.2 days
- age at 25% Mortality [1, 4]: 22.4* days
- age at 50% Mortality (median lifespan) [1, 4]: 25.5* days
- age at 75% Mortality [1, 4]: 28.3* days
- age at 95% Mortality [1, 4]: 32.3* days
